Data as given in US10526311B2 (ASTEX THERAPEUTICS LIMITED, priority 2015, dated 2020).
Read-outs that look alike come from different tables or passages of the source. Each block holds one molecule with its values, some of them ahead of it.

Target: MDM2-p53 interaction (in vitro translated MDM2, biotinylated IP3 peptide) (Homo sapiens, UniProt Q00987)
Assay: MDM2-p53 interaction 96-well plate binding assay (ELISA)
[1] = @ 0.10 μM, read-out: MDM2 % @ concentration

Sequence of MDM2-p53 interaction (in vitro translated MDM2, biotinylated IP3 peptide) (Q00987 whole entry): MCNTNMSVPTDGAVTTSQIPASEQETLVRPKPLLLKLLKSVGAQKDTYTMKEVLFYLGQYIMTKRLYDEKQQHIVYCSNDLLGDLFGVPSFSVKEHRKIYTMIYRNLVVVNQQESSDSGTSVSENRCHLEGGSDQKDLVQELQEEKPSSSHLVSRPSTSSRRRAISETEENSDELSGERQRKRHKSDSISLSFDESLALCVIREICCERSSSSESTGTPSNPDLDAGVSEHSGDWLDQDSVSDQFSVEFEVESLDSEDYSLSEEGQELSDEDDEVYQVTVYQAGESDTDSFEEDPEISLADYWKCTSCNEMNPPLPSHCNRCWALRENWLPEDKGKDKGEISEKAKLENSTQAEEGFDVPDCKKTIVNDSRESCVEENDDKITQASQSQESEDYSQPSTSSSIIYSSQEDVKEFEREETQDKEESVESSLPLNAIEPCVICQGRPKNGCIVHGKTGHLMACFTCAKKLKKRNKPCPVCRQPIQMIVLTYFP

inhibition at 0.3 µM (@ 0.30 μM, read-out: MDM2 % @ concentration): 53%
Compound: CO[C@]1(c2ccc(Cl)cc2)c2c(F)cc(C(C)(O)c3cnn(C4CN(C(=O)OC(C)(C)C)C4)c3)cc2C(=O)N1Cc1ccc(Cl)cn1 (single isomer, unassigned) [Example 457]

inhibition at 0.1 µM [1]: 73%
Compound: CCC(O)(c1cc(F)c2c(c1)C(=O)N(Cc1ncc(C#N)cn1)[C@@]2(OCC1(C#N)CC1)c1ccc(Cl)cc1)c1cn(C)cn1 (single isomer, unassigned) [Example 463]

inhibition at 1 µM (@ 1.0 μM, read-out: MDM2 % @ concentration): 53%
Compound: CO[C@]1(c2ccc(Cl)cc2)c2ccc(C(C)(O)C(=O)NCCN(C)C)cc2C(=O)N1Cc1ccc(Cl)cn1 (stereo partly drawn) [Example 149, 2-[(1R)-1-(4-Chlorophenyl)-2-[(5-chloropyridin-2-yl)methyl]-1-methoxy-3-oxo-2,3-dihydro-1H-isoindol-5-yl]-N-[2-(dimethylamino)ethyl]-2-hydroxypropanamide]

inhibition at 0.03 µM (@ 0.030 μM, read-out: MDM2 % @ concentration): 49%
Compound: CC(C)(O)c1cc(F)c2c(c1)C(=O)N([C@H](c1ccc(Cl)cn1)C(O)CO)[C@@]2(OCC1(O)CC1)c1ccc(Cl)cc1 (stereo partly drawn) [Example 331, (3R)-3-(4-Chlorophenyl)-2-[(1R)-1-(5-chloropyridin-2-yl)-2,3-dihydroxypropyl]-4-fluoro-3-[(1-hydroxycyclopropyl)methoxy]-6-(2-hydroxypropan-2-yl)-2,3-dihydro-1H-isoindol-1-one]

Compound: CCC(O)(c1cc(F)c2c(c1)C(=O)N(Cc1ccc(C#N)cn1)[C@@]2(O[C@H]1CCOC1)c1ccc(Cl)cc1)C1(F)CCOCC1 (single isomer, unassigned) [Example 445]
MDM2 % @ concentration (@ 0.0010 μM): 43% @ 0.0010
inhibition at 0.1 µM (read-out: MDM2 % @ concentration, @ 0.10 μM): 56%

inhibition at 0.1 µM [1]: 63%
Compound: COc1ccc(CN2C(=O)c3cc(C(C)(O)c4cnn(C)c4)cc(F)c3[C@]2(OCC2(O)CC2)c2ccc(Cl)cc2)nc1 (stereo partly drawn) [Example 347, (3R)-3-(4-chlorophenyl)-4-fluoro-6-[1-hydroxy-1-(1-methyl-1H-pyrazol-4-yl)ethyl]-3-[(1-hydroxycyclopropyl)methoxy]-2-[(5-methoxypyridin-2-yl)methyl]-2,3-dihydro-1H-isoindol-1-one]

inhibition at 0.1 µM [1]: 44%
Compound: CCCC(O)(c1cc(F)c2c(c1)C(=O)N(Cc1ccc(C#N)cn1)[C@@]2(O[C@H]1CCOC1)c1ccc(Cl)cc1)c1cn(C)cn1 (single isomer, unassigned) [Example 473]

inhibition at 0.1 µM [1]: 57%
Compound: CO[C@]1(c2ccc(Cl)cc2)c2ccc(C(C)(O)CN3CCNC3=O)cc2C(=O)N1Cc1ccc(Cl)cn1 (single isomer, unassigned) [Example 158]

inhibition at 0.1 µM [1]: 50%
Compound: CCC(O)(c1cc(F)c2c(c1)C(=O)N(Cc1ccc(C#N)cn1)[C@@]2(O[C@H]1CCOC1)c1ccc(Cl)cc1)c1cnn(C)c1 (single isomer, unassigned) [Example 359]

Compound: C[C@@H](c1ccc(Cl)cn1)N1C(=O)c2cc(C(C)(C)O)cc(F)c2[C@]1(OCC1(C(N)=O)CC1)c1ccc(Cl)cc1 [Example 70, 1-({[(1R)-1-(4-chlorophenyl)-2-[(1S)-1-(5-chloropyridin-2-yl)ethyl]-7-fluoro-5-(2-hydroxypropan-2-yl)-3-oxo-2,3-dihydro-1H-isoindol-1-yl]oxy}methyl)cyclopropane-1-carboxamide]
IC50: 3.2 nM

MDM2 % @ concentration (@ 0.30 μM): 36% @ 0.30
Compound: CO[C@]1(c2ccc(Cl)cc2)c2ccc(C(C)(O)CN3CC(=O)NC3=O)cc2C(=O)N1Cc1ccc(Cl)cn1 (single isomer, unassigned) [Example 330]

Compound: C[C@H](c1ccc(Cl)cn1)N1C(=O)c2cc(C(C)(C)O)cc(F)c2[C@]1(OCC1(C(N)=O)CC1)c1ccc(Cl)cc1 [Example 71, 1-({[(1R)-1-(4-chlorophenyl)-2-[(1R)-1-(5-chloropyridin-2-yl)ethyl]-7-fluoro-5-(2-hydroxypropan-2-yl)-3-oxo-2,3-dihydro-1H-isoindol-1-yl]oxy}methyl)cyclopropane-1-carboxamide]
IC50: 82 nM
